From US20110065782A1, “METHODS OF IDENTIFYING COMPOUNDS THAT INHIBIT THE ACTIVATION OF A BIOMOLECULE AND METHODS OF TREATMENT USING THE COMPOUNDS” (priority 2009, published 2011)

Key:
Edema Factor (EF) = Edema Factor (EF) (Bacillus anthracis, UniProt P40136); assay: biochemical; type: biochemical
preformed EF-CaM complex = preformed EF-CaM complex (Bacillus anthracis, UniProt P40136); type: biochemical
calmodulin (CaM) = biological target: T1, calmodulin (CaM) (Homo sapiens, UniProt P0DP23); assay: CaM binding of peptide P233-254 probed by steady-state tryptophan anisotropy fluorescence; conditions: 10 μM TUAdiCl; for fluorescence anisotropy (r) of P233-254 peptide: peptide 2 μM, calcium present
T1 construct: made in house

[1] = biological target: T2, adenylate cyclase toxin (CyaA) (Bordetella pertussis, UniProt P0DKX7); assay: Colorimetric adenylate cyclase enzymatic assay on CyaA; type: biochemical; conditions: concentration not given
T2 construct: made in house
T2 sequence (P0DKX7 whole entry, looked up): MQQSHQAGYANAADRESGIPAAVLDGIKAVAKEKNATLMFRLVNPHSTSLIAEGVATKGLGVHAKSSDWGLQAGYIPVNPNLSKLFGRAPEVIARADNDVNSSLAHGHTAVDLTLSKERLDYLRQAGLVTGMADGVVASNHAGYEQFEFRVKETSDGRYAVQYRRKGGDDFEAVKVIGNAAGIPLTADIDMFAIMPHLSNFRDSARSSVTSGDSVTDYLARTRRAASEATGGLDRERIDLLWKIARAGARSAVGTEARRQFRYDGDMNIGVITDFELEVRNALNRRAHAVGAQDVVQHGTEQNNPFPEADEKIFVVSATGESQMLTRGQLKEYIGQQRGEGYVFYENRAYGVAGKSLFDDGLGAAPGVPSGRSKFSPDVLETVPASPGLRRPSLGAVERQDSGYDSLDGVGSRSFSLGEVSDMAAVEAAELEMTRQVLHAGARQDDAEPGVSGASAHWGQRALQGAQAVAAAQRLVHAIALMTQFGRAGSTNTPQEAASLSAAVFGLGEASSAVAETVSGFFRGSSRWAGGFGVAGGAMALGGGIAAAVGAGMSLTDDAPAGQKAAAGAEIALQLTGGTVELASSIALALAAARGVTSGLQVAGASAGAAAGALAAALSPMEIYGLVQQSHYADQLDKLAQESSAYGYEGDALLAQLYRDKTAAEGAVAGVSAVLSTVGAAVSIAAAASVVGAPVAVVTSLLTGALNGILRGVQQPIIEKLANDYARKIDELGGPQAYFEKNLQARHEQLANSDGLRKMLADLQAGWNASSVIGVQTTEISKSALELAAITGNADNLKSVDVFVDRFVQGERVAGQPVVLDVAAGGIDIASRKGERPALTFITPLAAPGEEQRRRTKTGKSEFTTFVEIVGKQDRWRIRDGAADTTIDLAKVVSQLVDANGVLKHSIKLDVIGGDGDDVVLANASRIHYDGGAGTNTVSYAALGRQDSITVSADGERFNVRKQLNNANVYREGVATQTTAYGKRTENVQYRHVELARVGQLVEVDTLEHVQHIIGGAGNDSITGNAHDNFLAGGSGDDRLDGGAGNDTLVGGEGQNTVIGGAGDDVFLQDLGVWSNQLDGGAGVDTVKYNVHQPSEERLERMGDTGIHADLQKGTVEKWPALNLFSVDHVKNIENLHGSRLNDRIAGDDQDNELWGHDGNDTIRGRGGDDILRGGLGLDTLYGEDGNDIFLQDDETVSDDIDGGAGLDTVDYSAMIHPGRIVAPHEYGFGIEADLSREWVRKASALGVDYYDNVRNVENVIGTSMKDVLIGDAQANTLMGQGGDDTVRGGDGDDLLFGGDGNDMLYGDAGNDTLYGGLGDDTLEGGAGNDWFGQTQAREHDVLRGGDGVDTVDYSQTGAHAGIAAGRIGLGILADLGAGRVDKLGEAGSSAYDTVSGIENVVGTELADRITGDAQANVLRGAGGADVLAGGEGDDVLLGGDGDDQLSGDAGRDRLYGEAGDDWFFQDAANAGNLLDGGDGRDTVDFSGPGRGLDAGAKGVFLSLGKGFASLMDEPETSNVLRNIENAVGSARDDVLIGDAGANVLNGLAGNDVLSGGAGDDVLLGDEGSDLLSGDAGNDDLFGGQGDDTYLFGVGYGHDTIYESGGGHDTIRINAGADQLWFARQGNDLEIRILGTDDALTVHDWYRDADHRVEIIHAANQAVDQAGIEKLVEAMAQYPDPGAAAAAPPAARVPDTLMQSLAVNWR

Sequence of Edema Factor (EF) (P40136 34-800 limits assumed): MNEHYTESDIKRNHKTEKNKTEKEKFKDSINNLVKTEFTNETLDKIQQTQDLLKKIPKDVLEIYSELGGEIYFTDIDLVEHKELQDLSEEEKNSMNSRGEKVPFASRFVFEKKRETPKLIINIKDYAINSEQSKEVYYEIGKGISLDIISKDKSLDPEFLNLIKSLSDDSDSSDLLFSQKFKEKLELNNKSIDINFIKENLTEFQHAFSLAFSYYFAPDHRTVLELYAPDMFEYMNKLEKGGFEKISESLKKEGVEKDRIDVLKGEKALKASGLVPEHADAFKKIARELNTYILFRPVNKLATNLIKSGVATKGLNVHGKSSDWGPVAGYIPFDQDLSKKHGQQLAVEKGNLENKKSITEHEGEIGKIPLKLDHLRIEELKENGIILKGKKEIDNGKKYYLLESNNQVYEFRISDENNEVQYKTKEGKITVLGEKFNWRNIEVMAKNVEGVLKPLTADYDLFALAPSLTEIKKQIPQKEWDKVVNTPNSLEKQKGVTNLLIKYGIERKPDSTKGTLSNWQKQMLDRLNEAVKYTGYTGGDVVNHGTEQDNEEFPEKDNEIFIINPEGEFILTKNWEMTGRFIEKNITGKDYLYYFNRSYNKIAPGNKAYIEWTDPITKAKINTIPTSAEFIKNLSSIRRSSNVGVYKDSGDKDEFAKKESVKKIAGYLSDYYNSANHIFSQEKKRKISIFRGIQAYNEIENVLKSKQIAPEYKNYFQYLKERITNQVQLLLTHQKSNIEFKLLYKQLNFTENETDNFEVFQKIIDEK
Sequence of preformed EF-CaM complex (P40136 whole entry, looked up, one chain of several): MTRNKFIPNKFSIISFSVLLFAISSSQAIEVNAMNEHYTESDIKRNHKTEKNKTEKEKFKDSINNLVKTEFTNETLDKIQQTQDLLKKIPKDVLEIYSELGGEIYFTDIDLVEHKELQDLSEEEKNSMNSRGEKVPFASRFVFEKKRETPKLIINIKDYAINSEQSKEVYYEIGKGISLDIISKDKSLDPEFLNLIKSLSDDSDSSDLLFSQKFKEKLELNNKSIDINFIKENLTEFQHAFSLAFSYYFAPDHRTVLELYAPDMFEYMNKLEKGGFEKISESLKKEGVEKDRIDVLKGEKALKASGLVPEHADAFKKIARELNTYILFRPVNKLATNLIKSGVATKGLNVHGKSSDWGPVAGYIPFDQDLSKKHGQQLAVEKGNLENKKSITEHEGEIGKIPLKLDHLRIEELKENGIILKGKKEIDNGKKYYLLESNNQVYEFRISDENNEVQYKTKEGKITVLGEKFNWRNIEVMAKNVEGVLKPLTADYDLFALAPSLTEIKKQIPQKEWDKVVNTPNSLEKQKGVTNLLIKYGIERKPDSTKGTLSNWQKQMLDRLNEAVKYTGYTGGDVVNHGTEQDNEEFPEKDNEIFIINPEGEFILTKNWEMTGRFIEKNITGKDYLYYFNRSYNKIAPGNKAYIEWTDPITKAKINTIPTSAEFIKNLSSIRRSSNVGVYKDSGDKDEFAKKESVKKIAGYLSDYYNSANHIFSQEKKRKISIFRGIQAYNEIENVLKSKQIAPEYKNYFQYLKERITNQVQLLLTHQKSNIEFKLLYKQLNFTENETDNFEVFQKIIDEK

| SMILES | IC50 (Edema Factor (EF)) [µM] | concentration at which EF activity is inhibited (Edema Factor (EF)) | inhibition at 100 µM (Edema Factor (EF)) [%] | inhibition at 10 µM (Edema Factor (EF); read-out: inhibition of EF enzymatic activity) [%] | inhibition of enzymatic activity of the preformed EF-CaM complex (preformed EF-CaM complex) | effect on the ability of CaM to associate with CaM-binding peptide from CyaA (calmodulin (CaM)) | fluorescence anisotropy (r) of P233-254 peptide (calmodulin (CaM); with equimolar CaM) | fluorescence anisotropy (r) of P233-254 peptide (calmodulin (CaM); without CaM) | inhibition of CyaA activity [1] |
| --- | --- | --- | --- | --- | --- | --- | --- | --- | --- |
| O=C(Nc1ccc(Cl)c(Cl)c1)Nc1cc(-c2ccccc2)sc1C(=O)O [TUAdiCl] | 2 to 3 | less than 10 μM | 98 ± 6 | > 80 | significantly inhibit | no effect | 0.095 | 0.027 |  |
| O=C(Nc1ccc(Cl)c(Cl)c1)Nc1cc(-c2ccccc2)sc1C(=O)O [drawing 10] |  |  |  |  |  |  |  |  | inhibit CyaA activity |
